Assay results as given in patent publication US10111874B2, “Combination therapies for treatment of cancer” (Araxes Pharma LLC, priority 2014, dated 2018).

Target: T1, KRAS G12C 1-169, his-tagged protein, GDP-loaded (Homo sapiens, UniProt P01116, G12C)
T1 construct: KRAS G12C 1-169, his-tagged protein, GDP-loaded
Assay: Biochemical assay: covalent binding to KRAS G12C analyzed by mass spectrometry; also: test concentration or dose not given here
Details: compounds 48-246, measured at 2 h

T1 sequence (P01116 1-169 isoform P01116-2 G12C): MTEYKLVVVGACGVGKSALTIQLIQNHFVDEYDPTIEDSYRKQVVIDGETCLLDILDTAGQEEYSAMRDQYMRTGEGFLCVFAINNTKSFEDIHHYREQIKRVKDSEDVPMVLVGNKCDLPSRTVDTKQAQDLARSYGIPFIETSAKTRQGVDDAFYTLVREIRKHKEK

Row | SMILES | Binding %
1 | C=CC(=O)N1CCN(c2ncnc3cc(-c4ccccc4F)c(C(F)(F)F)cc23)CC1 [Compound I-150, 1-(4-(7-(2-fluorophenyl)-6-(trifluoromethyl)quinazolin-4-yl)piperazin-1-yl)prop-2-en-1-one] | ++++ (++++indicates binding activity greater than 75%)
2 | C=CC(=O)N1CCN(c2ncnc3cc(-c4cccc5cn[nH]c45)c(Cl)cc23)CC1 [Compound I-152, 1-(4-(6-chloro-7-(1H-indazol-7-yl)quinazolin-4-yl)piperazin-1-yl)prop-2-en-1-one] | +++ (+++indicates binding activity greater than 50% and up to 75%)
3 | C#Cc1ccccc1-c1cc2ncnc(N3CCN(C(=O)C=C)CC3)c2cc1Cl [Compound I-154, 1-(4-(6-chloro-7-(2-ethynylphenyl)quinazolin-4-yl)piperazin-1-yl)prop-2-en-1-one] | ++ (++indicates binding activity greater than 25% and up to 50%)
4 | C=CC(=O)N1CCN(c2ncnc3cc(-c4cc(C(N)=O)ccc4F)c(Cl)cc23)CC1 [Compound I-155, 3-(4-(4-acryloylpiperazin-1-yl)-6-chloroquinazolin-7-yl)-4-fluorobenzamide] | ++ (++indicates binding activity greater than 25% and up to 50%)
5 | C=CC(=O)N1CCN(c2ncnc3cc(-c4ccccc4CC4CC4)c(Cl)cc23)CC1 [Compound I-156, 1-(4-(6-chloro-7-(2-(cyclopropylmethyl)phenyl)quinazolin-4-yl)piperazin-1-yl)prop-2-en-1-one] | ++ (++indicates binding activity greater than 25% and up to 50%)
6 | C=CC(=O)N1CCN(c2ncnc3cc(-c4ccccc4C(F)(F)F)ccc23)CC1 [Compound I-157, 1-(4-(7-(2-(trifluoromethyl)phenyl)quinazolin-4-yl)piperazin-1-yl)prop-2-en-1-one] | + (+indicates binding activity from 5% to 25%)
7 | C=CC(=O)N1CCN(c2ncnc3cc(-c4cccc5c4CC(=O)N5)c(Cl)cc23)CC1 [Compound I-160, 4-(4-(4-acryloylpiperazin-1-yl)-6-chloroquinazolin-7-yl)indolin-2-one] | + (+indicates binding activity from 5% to 25%)
8 | C=CC(=O)N1CCN(c2ncnc3cc(-c4ccccc4CC(N)=O)c(Cl)cc23)CC1 [Compound I-161, 2-(2-(4-(4-acryloylpiperazin-1-yl)-6-chloroquinazolin-7-yl)phenyl)acetamide] | ++ (++indicates binding activity greater than 25% and up to 50%)
9 | C=CC(=O)N1CCN(c2ncnc3cc(-c4ccc5cn[nH]c5c4)c(Cl)cc23)CC1 [Compound I-162, 1-(4-(6-chloro-7-(1H-indazol-6-yl)quinazolin-4-yl)piperazin-1-yl)prop-2-en-1-one] | + (+indicates binding activity from 5% to 25%)
10 | C=CC(=O)N1CCN(c2ncnc3cc(-c4ccccc4F)c(O)cc23)CC1 [Compound I-163, 1-(4-(7-(2-fluorophenyl)-6-hydroxyquinazolin-4-yl)piperazin-1-yl)prop-2-en-1-one] | + (+indicates binding activity from 5% to 25%)
11 | C=CC(=O)N1CCN(c2ncnc3cc(-c4ccc5oc(N)nc5c4)c(Cl)cc23)CC1 [Compound I-164, 1-(4-(7-(2-aminobenzo[d]oxazol-5-yl)-6-chloroquinazolin-4-yl)piperazin-1-yl)prop-2-en-1-one] | + (+indicates binding activity from 5% to 25%)
12 | C=CC(=O)N1CCN(c2ncnc3cc(-c4ccccc4C(F)(F)F)sc23)CC1 [Compound I-166, 1-(4-(6-(2-(trifluoromethyl)phenyl)thieno[3,2-d]pyrimidin-4-yl)piperazin-1-yl)prop-2-en-1-one] | + (+indicates binding activity from 5% to 25%)
13 | C=CC(=O)N1CCN(c2ncnc3cc(-c4cccc5[nH]ncc45)c(Cl)cc23)CC1 [Compound I-167, 1-(4-(6-chloro-7-(1H-indazol-4-yl)quinazolin-4-yl)piperazin-1-yl)prop-2-en-1-one] | + (+indicates binding activity from 5% to 25%)
14 | C=CC(=O)N1CCN(c2ncnc3cc(-c4ccccc4CC#N)c(Cl)cc23)CC1 [Compound I-168, 2-(2-(4-(4-acryloylpiperazin-1-yl)-6-chloroquinazolin-7-yl)phenyl)acetonitrile] | ++ (++indicates binding activity greater than 25% and up to 50%)
15 | C=CC(=O)N1CCN(c2ncnc3cc(-c4ccc(O)cc4C(F)(F)F)c(Cl)cc23)CC1 [Compound I-169, 1-(4-(6-chloro-7-(4-hydroxy-2-(trifluoromethyl)phenyl)quinazolin-4-yl)piperazin-1-yl)prop-2-en-1-one] | +++ (+++indicates binding activity greater than 50% and up to 75%)
16 | C=CC(=O)N1CCN(c2ncnc3cc(-c4ccc[nH]c4=O)c(Cl)cc23)CC1 [Compound I-170, 3-(4-(4-acryloylpiperazin-1-yl)-6-chloroquinazolin-7-yl)pyridin-2(1H)-one] | + (+indicates binding activity from 5% to 25%)
17 | C=CC(=O)N1CCN(c2c(C#N)cnc3cc(-c4cccc5ccccc45)c(Cl)cc23)CC1 [Compound I-171, 4-(4-acryloylpiperazin-1-yl)-6-chloro-7-(naphthalen-1-yl)quinolin-3-carbonitrile] | +++ (+++indicates binding activity greater than 50% and up to 75%)
18 | C=CC(=O)N1CCN(c2c(C#N)cnc3cc(-c4ccc(F)cc4F)c(Cl)cc23)CC1 [Compound I-172, 4-(4-acryloylpiperazin-1-yl)-6-chloro-7-(2,4-difluorophenyl)quinolin-3-carbonitrile] | +++ (+++indicates binding activity greater than 50% and up to 75%)
19 | C=CC(=O)N1CCN(c2c(C#N)cnc3cc(-c4ccccc4C(F)(F)F)c(Cl)cc23)CC1 [Compound I-173, 4-(4-acryloylpiperazin-1-yl)-6-chloro-7-(2-(trifluoromethyl)phenyl) quinoline-3-carbonitrile] | ++++ (++++indicates binding activity greater than 75%)
20 | C=CC(=O)N1CCN(c2ncnc3cc(-c4cc(NC(C)=O)ccc4F)c(Cl)cc23)CC1 [Compound I-174, N-(3-(4-(4-acryloylpiperazin-1-yl)-6-chloroquinazolin-7-yl)-4-fluorophenyl)acetamide] | ++ (++indicates binding activity greater than 25% and up to 50%)
21 | C=CC(=O)N1CCN(c2ncnc3cc(-c4ccccc4C4(C#N)CC4)c(Cl)cc23)CC1 [Compound I-175, 1-(2-(4-(4-acryloylpiperazin-1-yl)-6-chloroquinazolin-7-yl)phenyl)cyclopropanecarbonitrile] | +++ (+++indicates binding activity greater than 50% and up to 75%)
22 | C=CC(=O)N1CCN(c2ncnc3cc(-c4ccccc4C4(C(N)=O)CC4)c(Cl)cc23)CC1 [Compound I-176, 1-(2-(4-(4-acryloylpiperazin-1-yl)-6-chloroquinazolin-7-yl)phenyl)cyclopropanecarboxamide] | +++ (+++indicates binding activity greater than 50% and up to 75%)
23 | C=CC(=O)N1CCN(c2ncnc3cc(-n4cc(Cl)ccc4=O)c(Cl)cc23)CC1 [Compound I-177, 1-(4-(4-acryloylpiperazin-1-yl)-6-chloroquinazolin-7-yl)-5-chloropyridin-2(1H)-one] | + (+indicates binding activity from 5% to 25%)
24 | C=CC(=O)Nc1ncc(C)c(-c2cc3ncnc(N4CCN(C(=O)C=C)CC4)c3cc2Cl)n1 [Compound I-178, N-(4-(4-(4-acryloylpiperazin-1-yl)-6-chloroquinazolin-7-yl)-5-methylpyrimidin-2-yl)acrylamide] | + (+indicates binding activity from 5% to 25%)
